Experimental data: the supplement of paper PMC11451515

How the values were obtained:
Settings in all cases: 48 h
[1] = test system: SEM cells; assay: AUC of viability dose-response curve (% viability x log10 dose units); higher = less sensitive
Procedure, shortened: (§1)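 Leukemia cells adapted to each medium (500 or 1000 cells/well, 1536-well plates) were exposed to library compounds in DMSO for 48 h at 37°C at 11 threefold doses, 47 μM to 0.79 nM. Luminescence by CellTiter-Glo One was normalised per plate to DMSO and cell-free wells, then fitted with a four-parameter log-logistic curve on log10 dose. Curves above full viability were scaled and quality-control failures removed before area under the curve was integrated by trapezoidal rule.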

[2] = test system: SEM cells; assay: cell viability relative to DMSO control; higher = less cytotoxic
Procedure, shortened: (§2)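 In 1536-well plates, 5 μl of leukemia cells were seeded per well: 500 cells/well for NOMO1 or SEM and 1000 cells/well for P12-Ichikawa. Each line had first been adapted for at least four passages in each medium. Library compounds in DMSO were pin-dosed at 11 threefold concentrations between 47 μM and 0.79 nM, and CellTiter-Glo One luminescence was read after 48 h at 37°C. Viability is a per-plate percentage relative to DMSO wells, with cell-free wells as background.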

[3] = test system: NOMO1; assay: as above
Procedure, shortened: as §2

[4] = test system: P12-Ichikawa; assay: as above
Procedure, shortened: as §2

[5] = test system: NOMO1; assay: AUC of viability dose-response curve (% viability x log10 dose units); higher = less sensitive
Procedure, shortened: as §1

[6] = test system: P12-Ichikawa; assay: as above
Procedure, shortened: as §1

COC[C@H]1OC(=O)C2=COC3=C2[C@@]1(C)\C4=C(C5CCC(=O)[C@@]5(C)C[C@H]4OC(C)=O)/C3=O (stereo partly specified)
[1]
Settings	AUC of viability dose-response curve
HPLM + 10% dialyzed FBS	397
RPMI 5 mM glucose + 10% FBS	432
RPMI 5 mM glucose + 10% dialyzed FBS	356

cell viability [%]
Settings	[2]	[3]	[4]
HPLM + 10% dialyzed FBS, 0.000781 µM	72.1	84.5	93.1
HPLM + 10% dialyzed FBS, 0.00234 µM	84.9	111	98.8
HPLM + 10% dialyzed FBS, 0.00702 µM	96.8	107	104
HPLM + 10% dialyzed FBS, 0.0211 µM	17.5	36.5	11.9
HPLM + 10% dialyzed FBS, 0.0632 µM	99.5	111	108
HPLM + 10% dialyzed FBS, 0.19 µM	93	114	113
HPLM + 10% dialyzed FBS, 0.569 µM	93.6	104	107
HPLM + 10% dialyzed FBS, 1.71 µM	95.6	114	107
HPLM + 10% dialyzed FBS, 5.12 µM	85.6	108	110
HPLM + 10% dialyzed FBS, 15.4 µM	82	95	99.1
HPLM + 10% dialyzed FBS, 46.1 µM	95.3	102	101
RPMI 5 mM glucose + 10% FBS, 0.000781 µM	90.8	90.1	83.8
RPMI 5 mM glucose + 10% FBS, 0.00234 µM	107	92	99.7
RPMI 5 mM glucose + 10% FBS, 0.00702 µM	101	92.2	98.7
RPMI 5 mM glucose + 10% FBS, 0.0211 µM	14.7	19.6	12.2
RPMI 5 mM glucose + 10% FBS, 0.0632 µM	109	98.7	98.1
RPMI 5 mM glucose + 10% FBS, 0.19 µM	102	98.3	93.6
RPMI 5 mM glucose + 10% FBS, 0.569 µM	107	100	97.3
RPMI 5 mM glucose + 10% FBS, 1.71 µM	111	91.8	101
RPMI 5 mM glucose + 10% FBS, 5.12 µM	81.5	93.6	94.3
RPMI 5 mM glucose + 10% FBS, 15.4 µM	92.2	91.8	97
RPMI 5 mM glucose + 10% FBS, 46.1 µM	80.3	107	82
RPMI 5 mM glucose + 10% dialyzed FBS, 0.000781 µM	89.2	82	85.8
RPMI 5 mM glucose + 10% dialyzed FBS, 0.00234 µM	84.6	85.2	90
RPMI 5 mM glucose + 10% dialyzed FBS, 0.00702 µM	88.9	95.7	97.6
RPMI 5 mM glucose + 10% dialyzed FBS, 0.0211 µM	16.4	47.2	32.6
RPMI 5 mM glucose + 10% dialyzed FBS, 0.0632 µM	88.6	93.3	99.8
RPMI 5 mM glucose + 10% dialyzed FBS, 0.19 µM	85.1	94.1	101
RPMI 5 mM glucose + 10% dialyzed FBS, 0.569 µM	94.8	90.9	95.1
RPMI 5 mM glucose + 10% dialyzed FBS, 1.71 µM	82.9	94.6	96.4
RPMI 5 mM glucose + 10% dialyzed FBS, 5.12 µM	77.1	91.5	102
RPMI 5 mM glucose + 10% dialyzed FBS, 15.4 µM	63.5	87.5	93.7
RPMI 5 mM glucose + 10% dialyzed FBS, 46.1 µM	50.9	87.6	77

NC1(C(=O)N[C@@H](CCO)c2ccc(Cl)cc2)CCN(c2ncnc3[nH]ccc23)CC1
AUC of viability dose-response curve
Settings	[1]	[5]	[6]
HPLM + 10% dialyzed FBS	375	409	391
RPMI 5 mM glucose + 10% FBS	378	413	362
RPMI 5 mM glucose + 10% dialyzed FBS	356	423	378
